Test results from ChEMBL document CHEMBL1154419, “Pharmacodynamic effects of telavancin against methicillin-resistant and methicillin-susceptible Staphylococcus aureus strains in the presence of human albumin or serum and in an in vitro kinetic model” (Antimicrob Agents Chemother, 2007).

Tested on: Staphylococcus aureus
Assay: Antibacterial activity against methicillin-resistant Staphylococcus aureus COL infected New Zealand white rabbit endocarditis model assessed as reduction in mean aortic vegetation titer at 30 mg/kg, iv twice daily after 4 days
Assay type: functional, Aorta

**Q.** Which log10CFU/g does the source give for `CN[C@H](CC(C)C)C(=O)N[C@H]1C(=O)N[C@@H](CC(N)=O)C(=O)N[C@H]2C(=O)N[C@H]3C(=O)N[C@H](C(=O)N[C@H](C(=O)O)c4cc(O)cc(O)c4-c4cc3ccc4O)[C@H](O)c3ccc(c(Cl)c3)Oc3cc2cc(c3O[C@@H]2O[C@H](CO)[C@@H](O)[C@H](O)[C@H]2O[C@H]2C[C@](C)(N)[C@H](O)[C@H](C)O2)Oc2ccc(cc2Cl)[C@H]1O` [VANCOMYCIN] here?
**A.** The log10CFU/g was 3.4.
